In paper PMC8954575, “Norepinephrine and Serotonin Can Modulate the Behavior of the Probiotic Enterococcus faecium NCIMB10415 towards the Host: Is a Putative Surface Sensor Involved?” (Microorganisms, 2022):

Biological target: T1, VicK (WalK) (Enterococcus faecium, UniProt Q3XYG9)
T1 construct: VicK (WalK) from a synthetic codon-optimized gene in pET-15b, N-terminal His-tag, purified from E. coli BL21 with DDM, RED-NHS labelled
T1 sequence (Q3XYG9 1-611): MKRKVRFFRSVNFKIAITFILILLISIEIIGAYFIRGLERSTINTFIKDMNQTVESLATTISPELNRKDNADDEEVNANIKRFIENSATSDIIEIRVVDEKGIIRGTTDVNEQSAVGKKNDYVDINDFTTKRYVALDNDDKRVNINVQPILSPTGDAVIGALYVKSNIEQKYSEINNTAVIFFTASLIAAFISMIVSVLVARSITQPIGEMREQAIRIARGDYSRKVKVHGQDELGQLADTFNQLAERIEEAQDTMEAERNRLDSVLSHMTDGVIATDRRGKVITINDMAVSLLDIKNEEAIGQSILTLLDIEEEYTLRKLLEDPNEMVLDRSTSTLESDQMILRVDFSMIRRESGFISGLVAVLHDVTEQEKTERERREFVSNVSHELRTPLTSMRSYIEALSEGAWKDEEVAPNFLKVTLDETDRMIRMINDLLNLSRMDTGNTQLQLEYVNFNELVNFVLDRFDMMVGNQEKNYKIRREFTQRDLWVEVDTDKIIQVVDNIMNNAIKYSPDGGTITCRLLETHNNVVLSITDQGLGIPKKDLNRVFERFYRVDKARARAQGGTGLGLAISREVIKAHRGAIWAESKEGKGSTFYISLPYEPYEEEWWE
Experiment: Micro-Scale Thermophoresis with purified labelled protein
Assay type: binding

## NCCc1c[nH]c2ccc(O)cc12 [5HT, serotonin]
  Kd: 4.5 ± 0.07 mM
